What was measured:
Assay type in all cases: cell-based
[1] = biological target: T1, Sodium channel protein type 5 subunit alpha (Homo sapiens, UniProt Q14524); assay: Inhibition of human Nav1.5 expressed in CHO-K1 cells preincubated for 3 mins followed by incubation under atrial fibrillation-mimicking condition at 5 Hz with -85 mV holding potential for 12 sec by automated Qpatch electrophysiological recording
[2] = biological target: T1, Sodium channel protein type 5 subunit alpha; assay: Inhibition of human Nav1.5 expressed in CHO-K1 cells preincubated for 3 mins followed by incubation under ventricular condition at sinus rate at 1 Hz with -100 mV holding potential for 25 sec by automated Qpatch electrophysiological recording
[3] = biological target: T1, Sodium channel protein type 5 subunit alpha; assay: Inhibition of human Nav1.5 expressed in CHO-K1 cells preincubated with compound for 3 mins in presence of ATXII followed by incubation under ventricular condition at sinus rate at 1 Hz with -100 mV holding potential for 25 sec by automated Qpatch electrophysiological recording

T1 sequence (Q14524 whole entry): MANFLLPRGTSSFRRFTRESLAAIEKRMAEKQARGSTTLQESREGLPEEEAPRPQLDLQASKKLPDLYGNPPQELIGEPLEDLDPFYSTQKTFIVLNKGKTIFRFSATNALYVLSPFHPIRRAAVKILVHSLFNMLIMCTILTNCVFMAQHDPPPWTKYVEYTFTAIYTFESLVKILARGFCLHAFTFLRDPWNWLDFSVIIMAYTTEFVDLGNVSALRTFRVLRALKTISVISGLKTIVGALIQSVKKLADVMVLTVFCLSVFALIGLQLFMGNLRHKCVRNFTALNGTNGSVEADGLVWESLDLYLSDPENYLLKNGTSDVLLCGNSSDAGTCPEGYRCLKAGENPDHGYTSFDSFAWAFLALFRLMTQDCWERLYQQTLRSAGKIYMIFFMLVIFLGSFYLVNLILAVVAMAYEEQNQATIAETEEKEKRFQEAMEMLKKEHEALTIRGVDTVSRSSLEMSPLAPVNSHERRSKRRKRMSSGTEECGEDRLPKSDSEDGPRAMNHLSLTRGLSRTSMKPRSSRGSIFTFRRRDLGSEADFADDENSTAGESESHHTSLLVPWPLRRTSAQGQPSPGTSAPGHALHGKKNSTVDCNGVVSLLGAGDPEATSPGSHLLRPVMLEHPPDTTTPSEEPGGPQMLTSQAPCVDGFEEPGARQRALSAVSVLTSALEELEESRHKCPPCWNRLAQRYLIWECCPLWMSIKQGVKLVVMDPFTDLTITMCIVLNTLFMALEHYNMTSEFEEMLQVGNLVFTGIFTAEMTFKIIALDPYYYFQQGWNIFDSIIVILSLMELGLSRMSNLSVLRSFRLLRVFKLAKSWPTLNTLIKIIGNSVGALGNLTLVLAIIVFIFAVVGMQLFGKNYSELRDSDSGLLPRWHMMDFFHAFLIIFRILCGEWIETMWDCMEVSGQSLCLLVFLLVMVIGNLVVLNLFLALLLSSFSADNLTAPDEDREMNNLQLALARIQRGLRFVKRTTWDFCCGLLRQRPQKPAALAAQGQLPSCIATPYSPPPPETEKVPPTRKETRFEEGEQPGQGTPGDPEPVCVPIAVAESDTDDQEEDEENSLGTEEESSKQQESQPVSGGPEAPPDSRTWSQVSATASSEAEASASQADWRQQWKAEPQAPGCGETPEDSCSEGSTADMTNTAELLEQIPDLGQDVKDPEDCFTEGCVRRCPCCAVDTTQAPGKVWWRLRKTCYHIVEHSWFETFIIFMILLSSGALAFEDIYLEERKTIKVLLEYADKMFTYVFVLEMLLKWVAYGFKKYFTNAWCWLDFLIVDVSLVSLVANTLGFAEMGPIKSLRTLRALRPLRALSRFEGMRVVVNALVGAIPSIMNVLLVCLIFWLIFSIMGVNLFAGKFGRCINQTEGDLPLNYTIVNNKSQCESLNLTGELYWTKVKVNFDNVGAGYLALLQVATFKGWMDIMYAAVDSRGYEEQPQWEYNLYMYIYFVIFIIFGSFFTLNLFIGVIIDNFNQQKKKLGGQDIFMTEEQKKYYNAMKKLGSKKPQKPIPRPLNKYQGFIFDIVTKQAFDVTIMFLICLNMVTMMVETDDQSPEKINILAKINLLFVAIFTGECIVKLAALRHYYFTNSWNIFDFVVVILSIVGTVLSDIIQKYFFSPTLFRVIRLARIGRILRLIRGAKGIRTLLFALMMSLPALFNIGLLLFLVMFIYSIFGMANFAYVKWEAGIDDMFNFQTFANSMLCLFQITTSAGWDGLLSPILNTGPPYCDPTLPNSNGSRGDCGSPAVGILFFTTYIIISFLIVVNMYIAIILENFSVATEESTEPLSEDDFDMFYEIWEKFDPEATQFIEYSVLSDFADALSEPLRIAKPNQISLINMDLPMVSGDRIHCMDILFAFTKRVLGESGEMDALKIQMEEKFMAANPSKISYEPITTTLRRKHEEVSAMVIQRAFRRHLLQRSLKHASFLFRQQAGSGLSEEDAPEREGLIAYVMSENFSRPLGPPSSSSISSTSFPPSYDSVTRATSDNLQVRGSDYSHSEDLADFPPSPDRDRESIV

Compound	IC50 [1] [nM]	IC50 [2] [µM]	IC50 [3] [µM]
C[C@](O)(CS(N)(=O)=O)c1ccc(Cl)c(-c2nnn(Cc3cc(OC(F)(F)F)ccc3F)n2)c1	1300	28	15
C[C@@](O)(CS(N)(=O)=O)c1ccc(Cl)c(-c2nnn(Cc3cc(OC(F)(F)F)ccc3F)n2)c1	1300	> 30	28
C[C@@](O)(CS(N)(=O)=O)c1cccc(-c2nnn(Cc3cc(OC(F)(F)F)ccc3F)n2)n1	1000	–	–
C[C@](O)(CS(N)(=O)=O)c1cccc(-c2nnn(Cc3cc(OC(F)(F)F)ccc3F)n2)n1	800	–	–
C[C@@](O)(CS(N)(=O)=O)c1ccc(F)c(-c2nnn(Cc3cc(OC(F)(F)F)ccc3F)n2)c1	1000	> 30	11

From ChEMBL document CHEMBL6134915, “Novel Sulfonamide Derivatives as Nav1.5 Sodium Channel Blockers for Treating Atrial Fibrillation” (ACS Med Chem Lett, 2025)
